Patent publication US20050288270A1, “New aminopyridine derivatives and their use as pharmaceuticals” (Pfizer Inc, priority 2004, published 2005)

Columns and labels:
dopamine D3 receptor = dopamine D3 receptor (Homo sapiens, UniProt P35462); test: D3/D2 agonist assay, functional potency at D3 receptor; format: cell-based
Description: (§1) Activity at the dopamine D3 receptor may be determined using the methods described in WO 2004/052372. […] Selectivity is calculated as the D2 EC50 value divided by the D3 EC50 value. Where the value of the D2 EC50 was >10000, a figure of 10000 was used in the calculation.

D2 receptor = D2 receptor (Homo sapiens, UniProt P14416); test: D3/D2 agonist assay, functional response at D2 receptor; format: cell-based; conditions: at 1000 nM; relative to the maximal effect of pramipexole
Description: as §1

dopamine D3 receptor, sequence (P35462 whole entry): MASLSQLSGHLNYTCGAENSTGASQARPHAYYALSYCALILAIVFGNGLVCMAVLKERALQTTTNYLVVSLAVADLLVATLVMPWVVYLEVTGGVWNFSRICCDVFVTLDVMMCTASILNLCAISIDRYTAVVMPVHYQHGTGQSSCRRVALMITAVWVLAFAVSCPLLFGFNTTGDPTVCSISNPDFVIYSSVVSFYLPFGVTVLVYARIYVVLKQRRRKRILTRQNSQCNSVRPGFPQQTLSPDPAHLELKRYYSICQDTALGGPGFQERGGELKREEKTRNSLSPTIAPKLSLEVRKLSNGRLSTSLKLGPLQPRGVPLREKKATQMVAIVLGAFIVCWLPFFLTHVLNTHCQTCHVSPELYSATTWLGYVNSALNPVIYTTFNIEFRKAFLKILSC
D2 receptor, sequence (P14416 whole entry): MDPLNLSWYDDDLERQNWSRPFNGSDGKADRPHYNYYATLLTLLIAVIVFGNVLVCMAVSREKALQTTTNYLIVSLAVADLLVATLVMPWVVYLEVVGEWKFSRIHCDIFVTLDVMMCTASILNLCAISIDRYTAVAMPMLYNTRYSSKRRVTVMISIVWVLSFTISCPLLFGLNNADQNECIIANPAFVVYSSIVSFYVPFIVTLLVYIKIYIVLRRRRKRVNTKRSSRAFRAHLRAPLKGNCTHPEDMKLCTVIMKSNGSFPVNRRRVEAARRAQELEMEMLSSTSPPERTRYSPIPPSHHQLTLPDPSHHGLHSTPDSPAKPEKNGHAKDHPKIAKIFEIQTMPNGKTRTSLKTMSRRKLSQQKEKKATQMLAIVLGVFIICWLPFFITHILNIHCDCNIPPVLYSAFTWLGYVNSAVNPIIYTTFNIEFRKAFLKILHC

CCCN1CC(c2ccc(N)nc2)OCC1CO (single isomer, unassigned) [Example 14, [6-(6-Aminopyridin-3-yl)-4-propylmorpholin-3-yl]methanol] was tested, and the EC50 (dopamine D3 receptor; agonist, read-out: functional potency at the D3 receptor, expressed as an EC50) was 20 nM, the Emax (dopamine D3 receptor; relative to the maximal effect of standard agent pramipexole, read-out: Emax (maximal response value)) was 98% and the “response against the D2 receptor” value (D2 receptor) was 22%.
